In patent publication US11299490B2, “Benzenesulfonamide compounds and their use as therapeutic agents” (Xenon Pharmaceuticals Inc., priority 2016, dated 2022):

Key:
NaV1.5 [1] = biological target: T1, NaV1.5 (Homo sapiens (Human), UniProt Q14524); assay: Electrophysiological Assay (EP, patch voltage clamp), NaV1.5; assay type: cell-based; conditions: HEK-293 cells, whole-cell patch clamp, inactivated state; arithmetic mean
Method: Sodium currents were measured using the patch clamp technique in the whole-cell configuration using either a PatchXpress automated voltage clamp or manually using an Axopatch 200B (Axon Instruments) or Model 2400 (A-M systems) amplifier. […] In some studies, the external sodium was reduced by equimolar replacement with choline. […] All recordings were performed at ambient temperature in a bath chamber with a volume of 150 μL. Control sodium currents were measured in 0.5% DMSO. Controls and representative compounds of the invention were applied to the recording chamber through a 4-pinch or 8-pinch valve bath perfusion system manufactured by ALA Scientific Instruments.
Series resistance compensation was applied (60-80%). […] All statistics in this study are given as mean±SD.
The membrane potential was maintained at a voltage where inactivation of the channel is complete. The voltage is then stepped back to a very negative (Vhold=−150 mV) voltage for 20 ms and then a test pulse is applied to quantify the compound block. […] The percent decrease in sodium current following wash-on of compound was taken as the percent block of sodium channels.

NaV1.6 = NaV1.6 (Homo sapiens (Human), UniProt Q9UQD0); assay: Sodium Influx Assay (Flux), NaV1.6
NaV1.1 = NaV1.1 (Homo sapiens (Human), UniProt P35498); assay: Sodium Influx Assay (Flux), NaV1.1; assay type: cell-based; conditions: Trex HEK293 cells, ANG2 dye; arithmetic mean
Source text: Sodium Influx Assay (In Vitro Assay)

NaV1.5 [2] = biological target: T1, NaV1.5; assay: cell-based

T1 sequence (Q14524 other isoform, or with tags, fused parts or gaps): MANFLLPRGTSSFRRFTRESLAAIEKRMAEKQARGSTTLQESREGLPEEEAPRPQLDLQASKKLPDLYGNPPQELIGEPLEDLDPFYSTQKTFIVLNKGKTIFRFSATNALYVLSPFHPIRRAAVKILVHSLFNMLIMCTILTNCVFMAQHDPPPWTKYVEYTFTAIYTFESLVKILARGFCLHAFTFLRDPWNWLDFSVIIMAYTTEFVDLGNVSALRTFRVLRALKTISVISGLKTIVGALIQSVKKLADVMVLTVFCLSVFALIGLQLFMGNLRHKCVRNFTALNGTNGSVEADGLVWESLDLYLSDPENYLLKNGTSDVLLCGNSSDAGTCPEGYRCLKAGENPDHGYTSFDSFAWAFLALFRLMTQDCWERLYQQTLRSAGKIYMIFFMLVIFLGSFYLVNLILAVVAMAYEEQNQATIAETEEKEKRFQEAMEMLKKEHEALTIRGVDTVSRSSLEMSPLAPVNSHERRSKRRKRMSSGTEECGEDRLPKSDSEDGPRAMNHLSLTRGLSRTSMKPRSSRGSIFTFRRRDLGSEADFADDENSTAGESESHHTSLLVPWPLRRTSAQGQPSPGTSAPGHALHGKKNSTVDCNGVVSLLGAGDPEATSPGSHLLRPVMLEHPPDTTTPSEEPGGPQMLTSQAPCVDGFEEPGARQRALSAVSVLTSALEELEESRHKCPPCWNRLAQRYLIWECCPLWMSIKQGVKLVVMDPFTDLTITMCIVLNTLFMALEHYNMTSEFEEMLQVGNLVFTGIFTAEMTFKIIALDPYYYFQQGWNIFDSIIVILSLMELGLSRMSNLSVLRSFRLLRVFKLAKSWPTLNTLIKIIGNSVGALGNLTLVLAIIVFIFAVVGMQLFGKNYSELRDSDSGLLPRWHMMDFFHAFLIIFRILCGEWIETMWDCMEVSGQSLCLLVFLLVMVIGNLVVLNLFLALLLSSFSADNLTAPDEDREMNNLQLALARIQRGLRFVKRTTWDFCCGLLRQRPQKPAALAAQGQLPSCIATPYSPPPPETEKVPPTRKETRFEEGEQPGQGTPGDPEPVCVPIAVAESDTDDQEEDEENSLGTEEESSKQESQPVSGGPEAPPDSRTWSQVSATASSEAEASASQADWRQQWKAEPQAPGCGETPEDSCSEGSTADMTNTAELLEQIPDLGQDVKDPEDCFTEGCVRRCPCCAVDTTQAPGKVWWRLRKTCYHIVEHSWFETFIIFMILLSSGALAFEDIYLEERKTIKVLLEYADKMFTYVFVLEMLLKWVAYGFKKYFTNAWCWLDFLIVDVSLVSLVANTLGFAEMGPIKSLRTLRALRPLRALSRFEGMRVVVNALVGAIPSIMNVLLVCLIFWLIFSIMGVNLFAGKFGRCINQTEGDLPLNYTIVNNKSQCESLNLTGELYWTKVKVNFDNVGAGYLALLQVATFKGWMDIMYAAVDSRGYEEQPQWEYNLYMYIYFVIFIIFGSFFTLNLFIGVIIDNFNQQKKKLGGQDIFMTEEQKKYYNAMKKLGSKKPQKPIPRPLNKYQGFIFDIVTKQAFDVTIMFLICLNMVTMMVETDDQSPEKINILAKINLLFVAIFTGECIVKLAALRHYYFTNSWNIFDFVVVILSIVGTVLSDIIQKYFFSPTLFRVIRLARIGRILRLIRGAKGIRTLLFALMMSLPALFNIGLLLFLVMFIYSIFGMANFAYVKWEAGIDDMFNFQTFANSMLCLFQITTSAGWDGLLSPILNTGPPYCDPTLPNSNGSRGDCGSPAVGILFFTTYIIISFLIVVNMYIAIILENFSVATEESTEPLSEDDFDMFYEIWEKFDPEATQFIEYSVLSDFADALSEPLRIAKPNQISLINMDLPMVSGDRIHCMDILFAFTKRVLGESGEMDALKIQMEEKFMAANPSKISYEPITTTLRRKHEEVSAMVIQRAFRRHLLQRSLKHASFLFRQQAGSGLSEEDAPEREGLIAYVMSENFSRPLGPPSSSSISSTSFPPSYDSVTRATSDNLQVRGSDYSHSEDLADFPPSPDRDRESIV

Row | SMILES | IC50 (NaV1.5 [1]) | IC50 (NaV1.6) | IC50 (NaV1.1) | IC50 (NaV1.5 [2])
1 | Cc1c(N(C)[C@H]2CCN(Cc3ccccc3)C2)cc(F)c(S(=O)(=O)Nc2cscn2)c1F [Example 103, (S)-4-((1-benzylpyrrolidin-3-yl)(methyl)amino)-2,6-difluoro-3-methyl-N-(thiazol-4-yl)benzenesulfonamide 2,2,2-trifluoroacetate] | > 30 µM |  |  | 
2 | C[C@@H]1[C@H](N(C)c2cc(F)c(S(=O)(=O)Nc3cscn3)cc2Cl)CCN1Cc1ccccc1 (racemic) [Example 309, rac-4-(((2R,3R)-1-benzyl-2-methylpyrrolidin-3-yl)(methyl)amino)-5-chloro-2-fluoro-N-(thiazol-4-yl)benzenesulfonamide] |  | 6.86 µM | 8.44 µM | 7.35 µM
